Laboratory results reported in ChEMBL document CHEMBL5678818, “Discovery of potent SOS1 inhibitors that block RAS activation via disruption of the RAS-SOS1 interaction” (Proc Natl Acad Sci U S A, 2019).

Tests used:
Homo sapiens = species on record: Homo sapiens; assay: Inhibition of N-terminal GST-tagged recombinant human SOS1 N879A mutant (564 to 1049 residues) expressed in Escherichia coli assessed as reduction in KRAS G12C mutant activation at 10 uM by HTRF analysis relative to control
[1] = molecular target: Bone morphogenetic protein receptor type-1A (Homo sapiens) (UniProt P36894); assay: Inhibition of BMPR1A (unknown origin) assessed as residual activity at 100 nM by KINOMEscan analysis relative to control
[2] = molecular target: Casein kinase I isoform gamma-1 (Homo sapiens) (UniProt Q9HCP0); assay: Inhibition of CSNK1G1 (unknown origin) assessed as residual activity at 100 nM by KINOMEscan analysis relative to control
[3] = tested on: Epidermal growth factor receptor (Homo sapiens), P00533 [L858R]; assay: Inhibition of EGFR L858R mutant (unknown origin) assessed as residual activity at 100 nM by KINOMEscan analysis relative to control
[4] = molecular target: Tyrosine-protein kinase JAK1 (Homo sapiens) (UniProt P23458); assay: Inhibition of JAK1 JH2 pseudokinase domain (unknown origin) assessed as residual activity at 100 nM by KINOMEscan analysis relative to control
[5] = molecular target: T1, Tyrosine-protein kinase JAK3 (Homo sapiens) (UniProt P52333); assay: Inhibition of JAK3 JH1 catalytic domain (unknown origin) assessed as residual activity at 100 nM by KINOMEscan analysis relative to control
T1 sequence (whole entry): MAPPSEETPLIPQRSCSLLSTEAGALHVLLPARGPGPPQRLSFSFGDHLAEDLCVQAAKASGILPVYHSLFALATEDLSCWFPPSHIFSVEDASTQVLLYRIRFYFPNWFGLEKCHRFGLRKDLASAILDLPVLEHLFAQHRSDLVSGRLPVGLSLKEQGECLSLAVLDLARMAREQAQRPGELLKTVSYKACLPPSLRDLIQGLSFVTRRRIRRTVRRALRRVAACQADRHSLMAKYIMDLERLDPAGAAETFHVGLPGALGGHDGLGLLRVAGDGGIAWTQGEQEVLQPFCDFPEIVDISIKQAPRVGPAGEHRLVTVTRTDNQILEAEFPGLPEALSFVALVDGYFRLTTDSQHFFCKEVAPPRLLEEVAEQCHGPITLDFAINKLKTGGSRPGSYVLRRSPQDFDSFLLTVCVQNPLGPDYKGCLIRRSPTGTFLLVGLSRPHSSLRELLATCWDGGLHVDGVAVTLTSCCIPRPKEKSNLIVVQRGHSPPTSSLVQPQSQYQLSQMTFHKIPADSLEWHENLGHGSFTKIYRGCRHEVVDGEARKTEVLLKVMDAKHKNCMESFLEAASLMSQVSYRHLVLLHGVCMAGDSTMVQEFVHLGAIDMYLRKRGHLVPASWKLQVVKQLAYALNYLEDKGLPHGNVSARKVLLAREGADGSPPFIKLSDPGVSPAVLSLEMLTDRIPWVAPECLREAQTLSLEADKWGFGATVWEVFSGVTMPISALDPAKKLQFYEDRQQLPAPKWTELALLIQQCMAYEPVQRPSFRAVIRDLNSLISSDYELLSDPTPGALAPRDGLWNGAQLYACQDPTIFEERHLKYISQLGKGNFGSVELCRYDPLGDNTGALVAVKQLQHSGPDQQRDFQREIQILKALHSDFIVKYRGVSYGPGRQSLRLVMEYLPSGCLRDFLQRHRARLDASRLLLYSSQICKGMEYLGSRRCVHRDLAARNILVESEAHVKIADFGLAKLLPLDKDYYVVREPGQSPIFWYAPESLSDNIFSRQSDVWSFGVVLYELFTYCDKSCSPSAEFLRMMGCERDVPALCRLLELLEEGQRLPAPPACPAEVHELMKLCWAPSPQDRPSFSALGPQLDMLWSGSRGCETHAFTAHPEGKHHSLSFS

[6] = molecular target: Platelet-derived growth factor receptor beta (Homo sapiens) (UniProt P09619); assay: Inhibition of PDGFRB (unknown origin) assessed as residual activity at 100 nM by KINOMEscan analysis relative to control
[7] = molecular target: T2, Protein kinase C iota type (Homo sapiens) (UniProt P41743); assay: Inhibition of PRKCI (unknown origin) assessed as residual activity at 100 nM by KINOMEscan analysis relative to control
T2 sequence (whole entry): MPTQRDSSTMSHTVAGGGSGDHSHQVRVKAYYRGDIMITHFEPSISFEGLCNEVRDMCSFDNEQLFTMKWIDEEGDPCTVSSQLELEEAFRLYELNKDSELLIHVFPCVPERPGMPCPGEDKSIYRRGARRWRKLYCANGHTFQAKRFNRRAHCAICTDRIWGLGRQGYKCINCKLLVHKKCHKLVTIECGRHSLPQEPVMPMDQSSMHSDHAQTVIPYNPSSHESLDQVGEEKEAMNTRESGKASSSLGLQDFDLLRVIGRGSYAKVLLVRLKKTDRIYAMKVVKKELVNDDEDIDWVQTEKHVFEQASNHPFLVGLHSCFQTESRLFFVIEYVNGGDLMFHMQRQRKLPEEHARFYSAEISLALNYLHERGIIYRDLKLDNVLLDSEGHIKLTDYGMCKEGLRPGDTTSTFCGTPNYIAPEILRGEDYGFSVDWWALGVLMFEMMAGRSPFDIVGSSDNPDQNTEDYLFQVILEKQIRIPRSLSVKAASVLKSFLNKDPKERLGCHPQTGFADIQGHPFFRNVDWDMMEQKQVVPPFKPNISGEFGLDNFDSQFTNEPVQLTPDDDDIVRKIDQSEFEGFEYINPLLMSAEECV

[8] = molecular target: Protein kinase C theta type (Homo sapiens) (UniProt Q04759); assay: Inhibition of PRKCQ (unknown origin) assessed as residual activity at 100 nM by KINOMEscan analysis relative to control
[9] = tested on: Proto-oncogene tyrosine-protein kinase receptor Ret (Homo sapiens), P07949 [M918T]; assay: Inhibition of RET M918T mutant (unknown origin) assessed as residual activity at 100 nM by KINOMEscan analysis relative to control
[10] = molecular target: Tyrosine-protein kinase receptor Tie-1 (Homo sapiens) (UniProt P35590); assay: Inhibition of TIE1 (unknown origin) assessed as residual activity at 100 nM by KINOMEscan analysis relative to control
[11] = molecular target: TRAF2 and NCK-interacting protein kinase (Homo sapiens) (UniProt Q9UKE5); assay: Inhibition of TNIK (unknown origin) assessed as residual activity at 100 nM by KINOMEscan analysis relative to control
[12] = molecular target: Serine/threonine-protein kinase VRK2 (Homo sapiens) (UniProt Q86Y07); assay: Inhibition of VRK2 (unknown origin) assessed as residual activity at 100 nM by KINOMEscan analysis relative to control
[13] = molecular target: Serine/threonine-protein kinase MAK (Homo sapiens) (UniProt P20794); assay: Inhibition of MAK (unknown origin) assessed as residual activity at 100 nM by KINOMEscan analysis relative to control
Sequence of Serine/threonine-protein kinase MAK (Homo sapiens) (P20794 whole entry, looked up): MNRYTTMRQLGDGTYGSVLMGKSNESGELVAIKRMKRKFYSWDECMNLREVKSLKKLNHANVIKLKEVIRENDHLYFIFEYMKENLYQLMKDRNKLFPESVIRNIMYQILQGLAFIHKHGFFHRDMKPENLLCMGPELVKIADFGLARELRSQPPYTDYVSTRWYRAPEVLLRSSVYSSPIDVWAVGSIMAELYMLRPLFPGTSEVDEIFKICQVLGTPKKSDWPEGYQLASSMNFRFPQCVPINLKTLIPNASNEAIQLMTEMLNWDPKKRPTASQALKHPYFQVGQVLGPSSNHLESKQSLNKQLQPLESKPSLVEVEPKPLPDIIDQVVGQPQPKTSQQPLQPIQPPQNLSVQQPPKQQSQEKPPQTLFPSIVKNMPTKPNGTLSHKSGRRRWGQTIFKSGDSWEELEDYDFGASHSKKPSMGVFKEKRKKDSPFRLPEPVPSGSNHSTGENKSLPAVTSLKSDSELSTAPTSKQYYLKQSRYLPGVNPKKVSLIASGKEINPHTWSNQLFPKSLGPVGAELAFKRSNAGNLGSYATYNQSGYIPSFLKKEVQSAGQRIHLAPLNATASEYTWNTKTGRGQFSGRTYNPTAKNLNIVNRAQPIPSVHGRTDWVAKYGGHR

Sequence of Serine/threonine-protein kinase VRK2 (Homo sapiens) (Q86Y07 whole entry): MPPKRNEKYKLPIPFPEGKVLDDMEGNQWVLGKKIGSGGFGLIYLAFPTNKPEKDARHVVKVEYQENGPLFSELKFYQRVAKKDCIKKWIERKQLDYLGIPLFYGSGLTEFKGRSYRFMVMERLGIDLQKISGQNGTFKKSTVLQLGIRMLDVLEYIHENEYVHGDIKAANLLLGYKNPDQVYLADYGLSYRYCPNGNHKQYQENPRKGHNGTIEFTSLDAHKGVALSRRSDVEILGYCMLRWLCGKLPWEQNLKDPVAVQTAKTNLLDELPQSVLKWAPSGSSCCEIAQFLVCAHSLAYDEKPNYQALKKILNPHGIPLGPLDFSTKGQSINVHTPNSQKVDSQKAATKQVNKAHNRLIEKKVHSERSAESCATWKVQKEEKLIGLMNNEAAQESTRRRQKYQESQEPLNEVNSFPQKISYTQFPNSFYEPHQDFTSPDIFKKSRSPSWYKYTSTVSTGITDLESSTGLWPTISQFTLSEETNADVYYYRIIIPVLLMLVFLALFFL
Sequence of Casein kinase I isoform gamma-1 (Homo sapiens) (Q9HCP0 whole entry, looked up, canonical isoform): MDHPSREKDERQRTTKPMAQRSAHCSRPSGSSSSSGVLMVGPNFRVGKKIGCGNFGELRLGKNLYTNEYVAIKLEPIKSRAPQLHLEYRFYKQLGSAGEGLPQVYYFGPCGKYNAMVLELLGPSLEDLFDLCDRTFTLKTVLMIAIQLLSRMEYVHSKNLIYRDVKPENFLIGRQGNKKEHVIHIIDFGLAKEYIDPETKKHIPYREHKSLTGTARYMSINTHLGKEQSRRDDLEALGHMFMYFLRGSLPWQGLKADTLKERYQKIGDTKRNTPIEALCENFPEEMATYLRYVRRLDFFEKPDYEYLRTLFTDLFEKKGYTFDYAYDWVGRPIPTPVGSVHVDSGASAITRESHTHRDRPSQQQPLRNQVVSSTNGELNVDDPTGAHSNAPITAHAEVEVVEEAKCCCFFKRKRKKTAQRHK
Sequence of Protein kinase C theta type (Homo sapiens) (Q04759 whole entry, looked up): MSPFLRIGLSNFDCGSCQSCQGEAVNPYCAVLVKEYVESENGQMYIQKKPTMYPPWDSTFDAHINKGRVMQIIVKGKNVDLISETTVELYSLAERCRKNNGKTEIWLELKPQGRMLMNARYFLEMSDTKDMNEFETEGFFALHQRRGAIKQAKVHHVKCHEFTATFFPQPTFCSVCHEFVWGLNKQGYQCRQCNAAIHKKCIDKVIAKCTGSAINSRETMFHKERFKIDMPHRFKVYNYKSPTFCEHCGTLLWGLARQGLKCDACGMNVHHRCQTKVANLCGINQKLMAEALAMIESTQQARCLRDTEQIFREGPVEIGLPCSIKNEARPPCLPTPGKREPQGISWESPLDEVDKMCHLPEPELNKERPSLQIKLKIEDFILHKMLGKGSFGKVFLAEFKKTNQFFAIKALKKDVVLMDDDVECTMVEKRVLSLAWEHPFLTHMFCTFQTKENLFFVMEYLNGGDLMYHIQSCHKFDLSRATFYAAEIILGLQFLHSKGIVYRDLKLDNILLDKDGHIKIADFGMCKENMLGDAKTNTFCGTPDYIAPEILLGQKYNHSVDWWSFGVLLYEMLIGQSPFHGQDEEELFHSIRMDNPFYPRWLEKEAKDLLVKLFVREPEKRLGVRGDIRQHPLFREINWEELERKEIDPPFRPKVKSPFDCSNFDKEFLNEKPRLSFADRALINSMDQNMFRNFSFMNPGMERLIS
Sequence of Bone morphogenetic protein receptor type-1A (Homo sapiens) (P36894 whole entry, canonical isoform): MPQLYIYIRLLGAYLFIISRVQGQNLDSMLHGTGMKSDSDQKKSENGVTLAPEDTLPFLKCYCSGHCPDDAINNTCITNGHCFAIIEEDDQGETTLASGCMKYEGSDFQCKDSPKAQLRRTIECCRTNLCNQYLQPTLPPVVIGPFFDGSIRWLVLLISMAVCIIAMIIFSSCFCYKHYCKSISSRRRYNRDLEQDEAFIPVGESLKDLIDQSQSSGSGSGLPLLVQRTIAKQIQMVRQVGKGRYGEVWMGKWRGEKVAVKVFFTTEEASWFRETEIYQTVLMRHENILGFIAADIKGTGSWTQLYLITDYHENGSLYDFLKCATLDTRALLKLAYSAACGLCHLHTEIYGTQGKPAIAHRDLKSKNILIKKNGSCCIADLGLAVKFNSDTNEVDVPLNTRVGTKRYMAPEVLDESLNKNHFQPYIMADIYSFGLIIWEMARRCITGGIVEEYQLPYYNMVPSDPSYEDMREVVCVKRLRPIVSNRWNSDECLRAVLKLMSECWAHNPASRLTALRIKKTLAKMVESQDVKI
Sequence of Tyrosine-protein kinase receptor Tie-1 (Homo sapiens) (P35590 whole entry): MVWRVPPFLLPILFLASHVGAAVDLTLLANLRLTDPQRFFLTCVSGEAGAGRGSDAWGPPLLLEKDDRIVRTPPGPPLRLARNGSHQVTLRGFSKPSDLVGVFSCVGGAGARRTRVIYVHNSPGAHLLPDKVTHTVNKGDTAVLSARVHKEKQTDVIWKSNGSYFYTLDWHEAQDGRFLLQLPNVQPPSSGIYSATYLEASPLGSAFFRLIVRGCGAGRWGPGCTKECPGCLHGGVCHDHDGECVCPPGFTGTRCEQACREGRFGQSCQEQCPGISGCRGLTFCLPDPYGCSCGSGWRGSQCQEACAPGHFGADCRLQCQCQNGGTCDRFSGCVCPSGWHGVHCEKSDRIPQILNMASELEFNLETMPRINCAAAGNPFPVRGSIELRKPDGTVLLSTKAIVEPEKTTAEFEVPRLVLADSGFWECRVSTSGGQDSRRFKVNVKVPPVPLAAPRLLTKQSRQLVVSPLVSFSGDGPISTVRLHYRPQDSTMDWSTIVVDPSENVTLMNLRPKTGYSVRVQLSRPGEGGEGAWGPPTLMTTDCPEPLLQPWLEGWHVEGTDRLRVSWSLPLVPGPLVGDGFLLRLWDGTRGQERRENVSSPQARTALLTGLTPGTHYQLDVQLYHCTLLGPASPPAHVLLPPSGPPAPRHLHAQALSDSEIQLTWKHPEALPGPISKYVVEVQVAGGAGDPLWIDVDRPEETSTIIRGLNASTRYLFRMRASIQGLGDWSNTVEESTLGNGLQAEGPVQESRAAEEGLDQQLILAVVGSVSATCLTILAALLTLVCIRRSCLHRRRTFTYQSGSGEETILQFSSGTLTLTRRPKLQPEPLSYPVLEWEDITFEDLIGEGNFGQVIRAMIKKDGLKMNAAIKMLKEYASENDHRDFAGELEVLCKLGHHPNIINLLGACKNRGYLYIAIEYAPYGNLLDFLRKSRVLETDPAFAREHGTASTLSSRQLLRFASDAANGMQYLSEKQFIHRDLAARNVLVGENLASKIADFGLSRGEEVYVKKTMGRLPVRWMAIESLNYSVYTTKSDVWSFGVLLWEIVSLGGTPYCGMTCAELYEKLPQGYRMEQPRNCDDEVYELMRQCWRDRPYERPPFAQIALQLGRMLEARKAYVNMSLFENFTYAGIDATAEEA
Sequence of Proto-oncogene tyrosine-protein kinase receptor Ret (Homo sapiens), P07949 [M918T] (P07949 whole entry M918T): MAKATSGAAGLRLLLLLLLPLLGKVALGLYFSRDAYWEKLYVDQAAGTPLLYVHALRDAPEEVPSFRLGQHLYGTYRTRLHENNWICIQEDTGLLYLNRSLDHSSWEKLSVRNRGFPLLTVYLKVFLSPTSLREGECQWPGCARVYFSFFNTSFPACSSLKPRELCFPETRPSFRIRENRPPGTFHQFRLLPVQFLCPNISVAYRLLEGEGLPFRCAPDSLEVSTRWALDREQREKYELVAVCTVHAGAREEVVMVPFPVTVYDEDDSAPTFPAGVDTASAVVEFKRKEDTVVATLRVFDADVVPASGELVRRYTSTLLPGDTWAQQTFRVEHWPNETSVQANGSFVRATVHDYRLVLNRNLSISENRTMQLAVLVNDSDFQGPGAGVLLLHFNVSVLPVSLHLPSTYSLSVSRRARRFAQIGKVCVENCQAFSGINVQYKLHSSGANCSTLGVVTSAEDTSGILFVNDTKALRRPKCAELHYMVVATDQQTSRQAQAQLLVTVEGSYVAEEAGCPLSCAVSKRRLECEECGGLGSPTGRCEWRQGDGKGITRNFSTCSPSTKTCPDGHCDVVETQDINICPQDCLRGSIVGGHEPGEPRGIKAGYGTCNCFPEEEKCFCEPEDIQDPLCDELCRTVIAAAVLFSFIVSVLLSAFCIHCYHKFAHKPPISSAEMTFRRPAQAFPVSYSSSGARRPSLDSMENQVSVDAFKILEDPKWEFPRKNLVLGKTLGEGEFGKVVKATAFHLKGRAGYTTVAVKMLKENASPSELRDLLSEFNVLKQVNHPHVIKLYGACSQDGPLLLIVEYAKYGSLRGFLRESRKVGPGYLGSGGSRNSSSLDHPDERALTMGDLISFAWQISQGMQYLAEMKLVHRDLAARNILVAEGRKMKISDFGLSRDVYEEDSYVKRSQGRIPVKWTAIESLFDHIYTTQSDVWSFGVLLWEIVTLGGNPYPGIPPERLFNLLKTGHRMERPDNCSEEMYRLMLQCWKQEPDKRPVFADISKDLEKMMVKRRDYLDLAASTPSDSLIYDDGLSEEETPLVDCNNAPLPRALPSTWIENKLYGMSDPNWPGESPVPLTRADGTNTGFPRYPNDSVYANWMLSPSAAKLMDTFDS

Question: For `COc1cc2ncnc(N[C@H](C)c3cccc4ccccc34)c2cc1OC`, which inhibition (Homo sapiens) is on record?
Answer: 37%

Question: What about the Activity [1] of the same molecule?
Answer: 71%

Question: And the Activity [2]?
Answer: 99%

Question: What about the Activity [3] of the same molecule?
Answer: 95%

Question: And the Activity [4]?
Answer: 100%

Question: And the Activity [5]?
Answer: 84%

Question: What about the Activity [6] of the same molecule?
Answer: 100%

Question: What about the Activity [7] of the same molecule?
Answer: 84%

Question: And the Activity [8]?
Answer: 100%

Question: What about the Activity [9] of the same molecule?
Answer: 99%

Question: And the Activity [10]?
Answer: 85%

Question: What about the Activity [11] of the same molecule?
Answer: 100%

Question: What about the Activity [12] of the same molecule?
Answer: 72%

Question: What about the Activity [13] of the same molecule?
Answer: 100%
